{
  "source": "patent US7446204B2",
  "about": "“Amino substituted aryloxybenzylpiperidine derivatives” (H. Lundbeck A/S, priority 2004, dated 2008)",
  "origin": "cited, not measured here",
  "key": {"MCH1 receptor [1]": {"biological_target": "T1, MCH1 receptor (Rattus norvegicus, UniProt P97639)", "T1 construct": "host or cells: living rats (endogenous receptor)", "T1 sequence (P97639 whole entry)": "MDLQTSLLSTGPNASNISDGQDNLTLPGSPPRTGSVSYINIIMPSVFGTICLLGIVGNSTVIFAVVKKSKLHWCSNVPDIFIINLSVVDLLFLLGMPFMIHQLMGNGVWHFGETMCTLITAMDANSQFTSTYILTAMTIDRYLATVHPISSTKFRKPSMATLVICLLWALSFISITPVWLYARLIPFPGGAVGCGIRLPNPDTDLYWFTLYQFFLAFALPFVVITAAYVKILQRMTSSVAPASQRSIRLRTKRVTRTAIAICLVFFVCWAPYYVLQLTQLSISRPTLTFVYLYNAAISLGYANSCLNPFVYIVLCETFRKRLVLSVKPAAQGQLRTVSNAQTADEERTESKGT", "conditions": "rat forced-swim; Borowsky et al., Nature Medicine 2002"}, "MCH1 receptor [2]": {"biological_target": "T2, MCH1 receptor (Cavia porcellus, UniProt H0VKT7)", "T2 construct": "host or cells: living guinea pigs (endogenous receptor)", "T2 sequence (H0VKT7 1-355)": "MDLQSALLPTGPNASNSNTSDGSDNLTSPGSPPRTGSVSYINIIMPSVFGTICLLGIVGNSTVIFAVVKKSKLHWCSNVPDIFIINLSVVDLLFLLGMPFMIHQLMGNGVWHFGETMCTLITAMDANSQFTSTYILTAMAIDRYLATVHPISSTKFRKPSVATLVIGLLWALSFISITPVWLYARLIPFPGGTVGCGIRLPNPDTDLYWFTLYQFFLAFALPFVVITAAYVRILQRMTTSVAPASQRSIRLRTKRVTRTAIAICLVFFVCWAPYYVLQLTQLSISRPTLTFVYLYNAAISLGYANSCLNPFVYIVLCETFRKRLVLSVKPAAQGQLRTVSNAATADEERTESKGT", "conditions": "guinea pig maternal-separation vocalization; Borowsky et al., Nature Medicine 2002"}, "MCH1 receptor [3]": {"biological_target": "T1, MCH1 receptor", "conditions": "rat social interaction; Borowsky et al., Nature Medicine 2002"}},
  "note": "Read-outs that look alike come from different tables or passages of the source.",
  "data": [
    {"smiles": "COCC1=C(C(=O)OC)[C@H](c2ccc(F)c(F)c2)N(C(=O)NCCCN2CCC(c3cccc(NC(C)=O)c3)CC2)C(=O)N1", "note": "[SNAP-7941]", "values": [
      {"measurement": "profile in behavioral model of depression and/or anxiety", "setting": "MCH1 receptor [1]", "value": "profile similar to clinically used anti-depressants and anxiolytics"},
      {"measurement": "profile in behavioral model of depression and/or anxiety", "setting": "MCH1 receptor [2]", "value": "profile similar to clinically used anti-depressants and anxiolytics"},
      {"measurement": "profile in behavioral model of depression and/or anxiety", "setting": "MCH1 receptor [3]", "value": "profile similar to clinically used anti-depressants and anxiolytics"}
    ]}
  ]
}
